The text below walks through data of publication PMC4703104 (Journal of medicinal chemistry, 2015).

pKd, pKi: −log10 of the molar value. Bounds are passed on as bounds.

Data set [1] relates to rat. The conditions noted are these: rat models ref 5; cited from earlier work.
In data set [2] the test system is mouse. Particulars: mouse models ref 5; cited from earlier work.
Data set [3] addresses T1, human δ receptor (hDOPr) (Homo sapiens, UniProt P41143). The experiment in a line: [3H]diprenorphine radioligand. In kind it is binding.
The target of data set [4] is T1, human δ receptor (hDOPr). The experiment in a line: cell-based.
Data set [5] in a line: Nephelometry. The format is physicochemical.
Data set [6] has as its target δ receptor (Homo sapiens, UniProt P41143). The data set is described as follows: PathHunter β-arrestin recruitment assay in CHO-OPRD1 cells. In kind it is cell-based.
Where [7] appears, read: HBSS + 25 mM HEPES and 10% FBS (β-arrestin assay buffer).
Where [8] appears, read: phosphate buffered saline solution, data not shown.

T1 sequence (P41143 whole entry): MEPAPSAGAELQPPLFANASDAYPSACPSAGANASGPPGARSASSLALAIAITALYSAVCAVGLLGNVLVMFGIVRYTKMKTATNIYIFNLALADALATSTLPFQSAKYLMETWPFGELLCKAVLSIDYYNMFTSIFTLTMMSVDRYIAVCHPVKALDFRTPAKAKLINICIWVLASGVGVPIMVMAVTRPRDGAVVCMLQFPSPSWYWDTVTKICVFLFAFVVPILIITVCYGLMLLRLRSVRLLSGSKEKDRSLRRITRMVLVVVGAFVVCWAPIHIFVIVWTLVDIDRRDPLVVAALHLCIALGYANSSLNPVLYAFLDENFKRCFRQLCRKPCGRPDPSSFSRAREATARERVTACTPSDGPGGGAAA
Sequence of δ receptor (P41143 whole entry): as above

For the molecule `CCN(CC)C(=O)c1ccc(C2=CC3(CCNCC3)Oc3cccc(O)c32)cc1` [ADL5859, N,N-diethyl-4-(5-hydroxyspiro-[chromene-2,4′-piperidine]-4-yl)benzamide], the “seizures” value in data set [1] and in data set [2] was “no seizures” each time.

In data set [3], `CN1CC[C@]2(c3cccc(O)c3)Cc3nc4ccccc4cc3C[C@H]2C1` [TAN67] showed a pKi of 8.00. Moreover, the “affinity ratio (vehicle Ki)/(2 Ki)” value in data set [3] (effect of 2 (10 μM) on the orthosteric agonist's Ki) came to 3. In data set [4], this molecule showed a pKd of 8.40.

Consider `Cc1ccccc1COc1ccc(C2C3=C(CC(C)(C)CC3=O)OC3=C2C(=O)CC(C)(C)C3)cc1` [compound 2, 3,3,6,6-tetramethyl-9-(4-((2-methylbenzyl)oxy)phenyl)-3,4,5,6,7,9-hexahydro-1H-xanthene-1,8(2H)-dione], for which the “concentrations showing particulate matter” value in data set [5] (setting [7]) is “above 3 μM”; in data set [5] (setting [8]) it was “above 1 μM”. As for `CC1(C)CC(=O)C2=C(C1)OC1=C(C(=O)CC(C)(C)C1)C2c1ccc(OCc2ccc(F)cc2)cc1` [compound 7], the “PAM activity at the δ receptor” value in data set [6] (PAM mode, EC20 of leu-enkephalin) is “robust potentiation”.

Consider `CC1(C)CC(=O)C2=C(C1)OC1=C(C(=O)CC(C)(C)C1)C2c1ccc(OCc2ccccc2Cl)cc1` [compound 8], for which the “selectivity μ/δ” value in data set [6] (potency ratio of PAM mode EC50 values, β-arrestin recruitment) is listed as above 33. Turning to `CC1(C)CC(=O)C2=C(C1)OC1=C(C(=O)CC(C)(C)C1)C2c1ccc(OCc2ccccc2Br)cc1` [compound 10, 9-(4-((2-Bromobenzyl)oxy)phenyl)-3,3,6,6-tetramethyl-3,4,5,6,7,9-hexahydro-1H-xanthene-1,8(2H)-dione], the “concentrations showing particulate matter” value in data set [5] (setting [7]) is reported as “above 3 μM”; in data set [5] (setting [8]) it was “above 1 μM”.
